From patent US20190307731A1, “ARYL HYDROCARBON RECEPTOR MODULATOR” (Ariagen, Inc., priority 2016, published 2019)
Like-named read-outs stand apart in the source and are kept apart here.

Target: T1, native (Human Hepatoma Huh-7) AhR receptor (Homo sapiens, UniProt P35869)
T1 construct: expression of native (Human Hepatoma Huh-7) AhR receptor reporter gene cells; endogenous in cells; host or cells: Human hepatoma Huh-7 cells carrying a firefly luciferase reporter vector
T1 sequence (P35869 11-848): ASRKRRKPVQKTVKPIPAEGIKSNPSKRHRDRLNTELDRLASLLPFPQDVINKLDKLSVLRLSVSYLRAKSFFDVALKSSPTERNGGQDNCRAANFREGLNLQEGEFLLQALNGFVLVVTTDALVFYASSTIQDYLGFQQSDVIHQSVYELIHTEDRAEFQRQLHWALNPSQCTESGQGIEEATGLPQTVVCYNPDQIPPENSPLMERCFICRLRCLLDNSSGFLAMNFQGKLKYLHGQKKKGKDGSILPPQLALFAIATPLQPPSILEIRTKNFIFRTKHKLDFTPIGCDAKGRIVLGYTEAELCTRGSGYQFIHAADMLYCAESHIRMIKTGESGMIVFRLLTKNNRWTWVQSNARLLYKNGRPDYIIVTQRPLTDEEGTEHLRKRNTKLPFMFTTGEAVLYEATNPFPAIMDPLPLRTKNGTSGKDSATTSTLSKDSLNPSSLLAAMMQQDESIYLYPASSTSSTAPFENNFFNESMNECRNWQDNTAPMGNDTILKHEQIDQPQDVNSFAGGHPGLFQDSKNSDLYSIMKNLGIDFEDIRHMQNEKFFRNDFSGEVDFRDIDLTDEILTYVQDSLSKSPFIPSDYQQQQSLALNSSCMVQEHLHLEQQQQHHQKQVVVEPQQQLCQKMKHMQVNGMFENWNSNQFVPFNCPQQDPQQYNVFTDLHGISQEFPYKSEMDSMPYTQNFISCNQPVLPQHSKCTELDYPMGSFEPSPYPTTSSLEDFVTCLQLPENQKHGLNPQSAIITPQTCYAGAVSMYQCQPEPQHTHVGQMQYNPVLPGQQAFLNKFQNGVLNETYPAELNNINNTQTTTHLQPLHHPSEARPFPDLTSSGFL
Assay: AhR agonism assay (luciferase reporter gene cells)
Assay type: cell-based
Procedure: Assay Materials (plasmids): expression of native (Human Hepatoma Huh-7) AhR receptor reporter gene cells, the reporter vector includes functional firefly luciferase gene linked to upstream receptor-specific genetic response elements (GRE).
The AhR agonism assay comprises the following three steps:
1. Cell implantation: a suspension of AhR receptor cells was prepared in cell recovery medium (CRM; FBS containing 10% activated carbon). Then, the prepared suspension (100 μl) was dispensed into wells of a white 96-well culture plate.
2. Right before the beginning of the experiment, Master Stocks were diluted to “2× concentration” treatment media with appropriate compound screening media (CSM: FBS containing 10% activated carbon). The test compounds were subjected to gradient dilution with CSM medium containing 0.2% DMSO, so that the final concentration of DMSO in each experimental well for each treatment group was 0.1%. […] The experimental plate was placed in an incubator at 37° C. for 24 h.
3. Fluorescence detection and analysis: after completion of the incubation, the treatment media were discarded and 100 μL/well of luciferase detection reagent was added. The Ave RLU (average relative fluorescence intensity) of each well and the coefficient of variation for each experimental group were determined. The activity of AhR receptor with various concentrations of the test compounds was quantitatively determined using a ratio of Ave RLU^Test Cmpd of various concentrations of the test compounds in the experimental group to Ave RLU^Vehicle of the blank control group, and fold activation and EC50 were determined.
For data processing method, refer to J. Biomol.

EC50 (AhR receptor reporter gene cells, 24 h incubation at 37° C., luciferase readout, read-out: EC50)	SMILES	EC50
10 to 100 µM	CC(C)c1ncc(C(=O)c2c[nH]c3ccccc23)s1 [Compound 10]	
	COC(=O)c1nsc(C(=O)c2c[nH]c3ccc(F)cc23)n1 [Compound 13]	1 to 10 µM
	COC(=O)c1nsc(C(=O)c2c[nH]c3ccc(OC)cc23)n1 [Compound 14]	1 to 10 µM
